According to US20230020999A1, “ANTI-CD30 ANTIBODY-DRUG CONJUGATES AND THEIR USE FOR THE TREATMENT OF HIV INFECTION” (priority 2019, published 2023):
Non-standard residues stand in square brackets, D forms with d. Residues, ends and D or L forms follow the SMILES beside them. *: point of attachment. Dolaproine = CO[C@@H]([C@@H]1CCCN1)[C@@H](C)C(=O)O; Dil = CC[C@H](C)[C@H](NC)[C@@H](CC(=O)O)OC; X1 = C[C@@H](N*)[C@@H](O)c1ccccc1; NMeV = CN[C@H](C(=O)O)C(C)C

Tests used:
CYP3A4 = CYP3A4 (Homo sapiens, UniProt P08684); settings: cited from earlier work
Chain of CYP3A4 (P08684 whole entry): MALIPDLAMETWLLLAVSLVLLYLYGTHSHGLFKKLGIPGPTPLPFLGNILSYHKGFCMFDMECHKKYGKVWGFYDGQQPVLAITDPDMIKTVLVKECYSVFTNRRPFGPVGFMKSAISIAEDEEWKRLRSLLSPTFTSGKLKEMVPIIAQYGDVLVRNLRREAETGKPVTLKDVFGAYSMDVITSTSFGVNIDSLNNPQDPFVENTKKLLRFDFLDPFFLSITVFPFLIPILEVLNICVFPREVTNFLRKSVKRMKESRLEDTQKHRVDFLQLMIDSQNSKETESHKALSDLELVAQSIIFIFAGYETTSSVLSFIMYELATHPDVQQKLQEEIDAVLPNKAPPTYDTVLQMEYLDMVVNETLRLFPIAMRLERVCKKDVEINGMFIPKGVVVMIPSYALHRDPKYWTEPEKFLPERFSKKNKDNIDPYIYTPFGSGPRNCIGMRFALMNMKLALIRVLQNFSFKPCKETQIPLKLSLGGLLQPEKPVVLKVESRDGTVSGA

[1] = molecular target: permeability glycoprotein (Pgp) (Homo sapiens, UniProt P08183); settings: cited from earlier work
Chain of permeability glycoprotein (Pgp) (P08183 whole entry): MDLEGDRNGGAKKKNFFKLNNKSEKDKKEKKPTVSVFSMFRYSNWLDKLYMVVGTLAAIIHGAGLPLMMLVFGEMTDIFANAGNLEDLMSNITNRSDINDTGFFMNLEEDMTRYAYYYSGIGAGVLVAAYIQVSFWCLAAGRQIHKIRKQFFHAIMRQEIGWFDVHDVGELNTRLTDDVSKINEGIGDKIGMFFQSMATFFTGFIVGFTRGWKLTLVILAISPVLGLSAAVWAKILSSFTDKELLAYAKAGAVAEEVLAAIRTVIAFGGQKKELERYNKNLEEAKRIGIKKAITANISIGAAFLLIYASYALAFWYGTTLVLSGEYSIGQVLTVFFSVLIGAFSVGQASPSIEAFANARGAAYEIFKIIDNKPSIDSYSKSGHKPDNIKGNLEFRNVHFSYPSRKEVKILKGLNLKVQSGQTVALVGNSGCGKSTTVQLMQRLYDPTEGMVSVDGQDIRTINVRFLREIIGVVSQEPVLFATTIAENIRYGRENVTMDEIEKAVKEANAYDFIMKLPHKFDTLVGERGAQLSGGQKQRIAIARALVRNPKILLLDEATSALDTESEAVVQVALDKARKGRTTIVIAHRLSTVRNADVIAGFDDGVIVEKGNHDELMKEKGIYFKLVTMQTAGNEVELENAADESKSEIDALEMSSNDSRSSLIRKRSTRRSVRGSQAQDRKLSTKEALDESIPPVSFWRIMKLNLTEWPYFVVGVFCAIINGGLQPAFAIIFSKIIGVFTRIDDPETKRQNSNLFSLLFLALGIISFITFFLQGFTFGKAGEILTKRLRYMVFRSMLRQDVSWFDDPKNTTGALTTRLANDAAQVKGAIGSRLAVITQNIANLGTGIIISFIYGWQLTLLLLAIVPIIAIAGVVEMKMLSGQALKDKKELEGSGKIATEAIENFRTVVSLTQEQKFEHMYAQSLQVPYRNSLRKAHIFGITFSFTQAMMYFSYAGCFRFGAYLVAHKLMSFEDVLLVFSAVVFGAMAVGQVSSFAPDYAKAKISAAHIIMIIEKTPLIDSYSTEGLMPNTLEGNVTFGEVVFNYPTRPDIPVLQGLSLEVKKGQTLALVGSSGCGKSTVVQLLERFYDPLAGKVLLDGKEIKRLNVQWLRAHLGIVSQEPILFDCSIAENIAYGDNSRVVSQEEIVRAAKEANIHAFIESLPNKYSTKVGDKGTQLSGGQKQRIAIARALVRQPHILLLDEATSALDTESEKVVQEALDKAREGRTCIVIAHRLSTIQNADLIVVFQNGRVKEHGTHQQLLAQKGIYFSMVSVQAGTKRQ

naïve CD4 T cells = test: Free MMAE titration on activated T cell populations, viable cell counts; type: cell-based; settings: CD3/CD28 beads and IL-2 (10 ng/ml), 4 days, cell counts relative to untreated control
Protocol: (§1) To evaluate the effect of free MMAE on the various T cell populations, naïve (CD45RA+, CD45RO−) and memory (CD45RA−, CD45RO+) CD4 and CD8 T cells and CD25^hi CD127^lo T regulatory cells were enriched from healthy donor leukopaks and activated with CD3/CD28 beads and IL-2 (10 ng/ml) in round-bottom 96-well tissue culture plates for 4 days with a titration of free monomethyl auristatin E (MMAE). […] Data are represented as cell counts relative to untreated control.

[2] = test system: T regulatory cells (Treg); test: as above; type: cell-based; settings: CD3/CD28 beads and IL-2 (10 ng/ml), 4 days, cell counts relative to untreated control
Protocol: as §1

naïve CD8 T cells = test: as above; type: cell-based; settings: Naïve CDS; CD3/CD28 beads and IL-2 (10 ng/ml), 4 days; cell counts relative to untreated control
Protocol: as §1

memory CD8 T cells = test: as above; type: cell-based; settings: Memory CDS; CD3/CD28 beads and IL-2 (10 ng/ml), 4 days; cell counts relative to untreated control
Protocol: as §1

memory CD4 T cells [3] = test: as above; type: cell-based; settings: CD3/CD28 beads and IL-2 (10 ng/ml), 4 days, cell counts relative to untreated control
Protocol: as §1

CD30+ cell lines = settings: in vitro; cited from earlier work
[4] = test system: Hodgkin disease xenograft; settings: SCID mouse xenograft models of Hodgkin disease; cited from earlier work
Tregs = settings: subjects with CD30+ lymphomas; cited from earlier work
Treg = test: Effect of BV on activated T cell viability (FACS); type: cell-based
Protocol: (§2) To evaluate the effect of BV on activated T cell viability, naïve, memory, and Treg subsets were driven to proliferate in vitro in the presence of BV or control antibody-drug conjugate (ADC). Briefly, T cell subsets were mixed with CD3/CD28 beads (4:1)+IL-2 10 ng/ml in RPMI 10% FCS and distributed −2.0×10^4 cells/well into a 96-well round-bottom plate. A titration of BV or control IgG-MMAE was added to replicate wells, for a final volume of 200 μl, and plates were incubated at 37° C. for 4 days. On the final day of the assay, cells were stained with Zombie® Aqua Viability Dye and a non-competing monoclonal μCD30-PE (Biolegend) for FACS analysis. […] Cell counts are shown as the percent of untreated control.

memory CD4 T cells [5] = test: Effect of BV on activated T cell viability (FACS); type: cell-based
Protocol: as §2

[6] = CD3/CD28 beads + IL-2, BV titration, 4 days, n=4, FIG. 1A

CC[C@H](C)[C@@H]([C@@H](CC(=O)N1CCC[C@H]1[C@H](OC)[C@@H](C)C(=O)N[C@H](C)[C@@H](O)c1ccccc1)OC)N(C)C(=O)[C@@H](NC(=O)[C@@H](NC)C(C)C)C(C)C [MMAE, monomethyl auristatin E] (H-[NMeV]V[Dil][Dolaproine]-X1)
metabolism (CYP3A4): primarily metabolized by CYP3A4
Pgp substrate [1]: known Pgp substrate
IC50 (naïve CD4 T cells): 1.13 nM
IC50 [2]: 0.43 nM
IC50 (naïve CD8 T cells): 1.96 nM
IC50 (memory CD8 T cells): 0.77 nM
IC50 (memory CD4 T cells [3]): 0.55 nM

cAC10
growth of CD30+ cell lines (CD30+ cell lines): induces growth arrest
antitumor activity [4]: pronounced antitumor activity

B1: brentuximab vedotin (conjugate)
VH: QIQLQQSGPEVVKPGASVKISCKASGYTFTDYYITWVKQKPGQGLEWIGWIYPGSGNTKYNEKFKGKATLTVDTSSSTAFMQLSSLTSEDTAVYFCANYGNYWFAYWGQGTQVTVSA
VL: DIVLTQSPASLAVSLGQRATISCKASQSVDFDGDSYMNWYQQKPGQPPKVLIYAASNLESGIPARFSGSGSGTDFTLNIHPVEEEDAATYYCQQSNEDPWTFGGGTKLEIK
change in Tregs (Tregs): reduction in Tregs
total viable Treg cell numbers (Treg; [6]): dose-dependent reduction
numbers of viable CD30+ cells (Treg; CD30+ Treg, end of 4-day assay, FIG. 1B): enhanced depletion
total viable memory CD4 T cell numbers (memory CD4 T cells [5]; [6]): dose-dependent reduction
numbers of viable CD30+ cells (memory CD4 T cells [5]; CD30+ memory CD4 T cells, end of 4-day assay, FIG. 1B): enhanced depletion
